According to patent US20130012491A1, “PYRIMIDINE DERIVATIVES FOR USE AS SPHINGOSINE 1-PHOSPHATE 1 (S1P1) RECEPTOR AGONISTS” (GLAXO GROUP LIMITED, priority 2010, published 2013):
Structures can show the parent of a compound that is named as a salt.

Tested on: S1P3 knock-out animals
Test: not given
Conditions: unlike wild type mice; cited from earlier work

Compound | bradycardia
CCCCCCCCc1ccc(CCC(N)(CO)CO)cc1 [FTY720] | do not demonstrate bradycardia

Tested on: circulating lymphocytes
Test: not given
Conditions: animals and man; cited from earlier work

Compound | effect on circulating lymphocytes
CCCCCCCCc1ccc(CCC(N)(CO)CO)cc1 [FTY720] | reduce circulating lymphocytes

Target: T1, S1P3 (human Endothelial Differentiation G-protein Coupled Receptor 3 (EDG3)) (Homo sapiens, UniProt Q99500)
T1 construct: expressed in transfected cells; host or cells: GeneBLAzer EDG3-Ga15-NFAT-bla HEK 293T cells
Test: S1P3 GeneBlazer assay
Assay type: cell-based
Conditions: agonist, EDG3-Ga15-NFAT-bla HEK 293T cells, beta-lactamase FRET readout
Protocol: GeneBLAzer EDG3-Ga15-NFAT-bla HEK 293T cells (contain the human Endothelial Differentiation G-protein Coupled Receptor 3 (EDG3) and a beta-lactamase reporter gene under control of a […] response element and a promiscuous G Protein, Ga15, stably integrated into the GeneBLAzer Ga15-NFAT-bla HEK 293T cell line) were harvested from growth medium and suspended in assay medium (90% DMEM, 10% Charcoal-stripped FBS, 0.1 mM NEAA, 25 mM HEPES (pH 7.3), 100 U/ml penicillin, 100 μg/ml streptomycin) at a density of ˜200,000 cells/ml.
All test compounds were dissolved in DMSO at a concentration of 10 mM and were prepared in 100% DMSO to provide 10 point dose response curves. Test compounds prepared by Bravo (Velocity11) were added to wells in columns 2-11 and 13-22; DMSO was added to wells in columns 12 and 23 as unstimulated controls and assay medium was added to wells in columns 1 and 24 as cell-free controls. An S1P3 agonist was added to wells in row 2, columns 2-11 as stimulated controls and test compounds were added to wells in row 2, columns 13-22 and rows 3-15, columns 2-11/13-22 (row 1 and 16 were empty and not used). Compounds in solution were added to the assay plate (Greiner 781090) using an Echo (Labcyte) dose-response program (50 nl/well). The unstimulated and cell-free controls were loaded with 50 nl/well pure DMSO to ensure that the DMSO concentration was constant across the plate for all assays.
50 μl of the cell suspension was added to each well in columns 2-23 of the plate (˜10,000 cells per well). 50 μl of assay medium was added to each well in the cell-free controls (columns 1 and 24). The cells were incubated overnight at 37° C./5% CO2.
10 μl of 6× substrate mixture (LiveBLAzer™-FRET B/G substrate (CCF4-AM) Cat # K1096 from Invitrogen, Inc.) was added to each well using Bravo and the plates incubated at room temperature for 2 h in the dark. The plate was finally read on EnVision using one excitation channel (409 nm) and two emission channels (460 nm and 530 nm).
The blue/green emission ratio (460 nm/530 nm) was calculated for each well, by dividing the background-subtracted Blue emission values by the background-subtracted Green emission values. The dose response curve is based on sigmoidal dose-response model. All ratio data was normalized based upon the maximum emission ratio of positive control and minimum emission ratio of negative control (DMSO) on each plate. The intrinsic activity (IA) of each compound would be the normalized percentage of its maximum response after curve fitting.

T1 sequence (Q99500 whole entry): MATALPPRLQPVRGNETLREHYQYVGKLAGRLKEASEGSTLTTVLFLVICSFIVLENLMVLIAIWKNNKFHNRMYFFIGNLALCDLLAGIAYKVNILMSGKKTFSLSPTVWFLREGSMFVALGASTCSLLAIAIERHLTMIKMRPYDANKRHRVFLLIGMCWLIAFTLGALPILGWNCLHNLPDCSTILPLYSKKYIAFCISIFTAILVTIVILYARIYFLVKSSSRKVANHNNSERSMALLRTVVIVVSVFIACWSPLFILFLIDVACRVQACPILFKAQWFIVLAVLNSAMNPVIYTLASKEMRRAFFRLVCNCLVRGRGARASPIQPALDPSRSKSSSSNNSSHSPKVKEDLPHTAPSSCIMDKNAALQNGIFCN

Compound | EC50 [µM]
CCc1c(CCN2CCC(C(=O)O)C2)cccc1-c1cnc(-c2ccc(OC(C)C)c(Cl)c2)nc1 (stereo not shown) [Example 29, 1-{2-[3-(2-{3-chloro-4-[(1-methylethyl)oxy]phenyl}-5-pyrimidinyl)-2-ethylphenyl]ethyl}-3-pyrrolidinecarboxylic acid] | ≤ 2
CCc1c(CCN(C)CC(=O)O)cccc1-c1cnc(-c2ccc(OC(C)C)c(Cl)c2)nc1 [Example 27, N-{2-[3-(2-{3-chloro-4-[(1-methylethyl)oxy]phenyl}-5-pyrimidinyl)-2-ethylphenyl]ethyl}-N-methylglycine] | ≤ 10
CCc1c(-c2cnc(-c3ccc(OC(C)C)c(Cl)c3)nc2)cccc1C1CCN(CCC(=O)O)CC1 [Example 15, 3-{4-[3-(2-{3-chloro-4-[(1-methylethyl)oxy]phenyl}-5-pyrimidinyl)-2-ethylphenyl]-1-piperidinyl}propanoic acid trifluoroacetate] | ≤ 10
CCc1c(CN2CC(C(=O)O)C2)cccc1-c1cnc(-c2ccc(OC(C)C)c(C(F)(F)F)c2)nc1 [Example 11, 1-[(2-ethyl-3-{2-[4-[(1-methylethyl)oxy]-3-(trifluoromethyl)phenyl]-5-pyrimidinyl}phenyl)methyl]-3-azetidinecarboxylic acid] | ≤ 10
CCc1c(CNCCC(=O)O)cccc1-c1cnc(-c2ccc(OC(C)C)c(C(F)(F)F)c2)nc1 [Example 10, N-[(2-ethyl-3-{2-[4-[(1-methylethyl)oxy]-3-(trifluoromethyl)phenyl]-5-pyrimidinyl}phenyl)methyl]-b-alanine] | ≤ 2
CCc1c(CCN2CC[C@H](C(=O)O)C2)cccc1-c1cnc(-c2ccc(OC(C)C)c(Cl)c2)nc1 [Example 30, (3S)-1-{2-[3-(2-{3-chloro-4-[(1-methylethyl)oxy]phenyl}-5-pyrimidinyl)-2-ethylphenyl]ethyl}-3-pyrrolidinecarboxylic acid] | ≤ 2
CCc1c(CN2CCC(C(=O)O)CC2)cccc1-c1cnc(-c2ccc(OC(C)C)c(C(F)(F)F)c2)nc1 [Example 13, 1-[(2-ethyl-3-{2-[4-[(1-methylethyl)oxy]-3-(trifluoromethyl)phenyl]-5-pyrimidinyl}phenyl)methyl]-4-piperidinecarboxylic acid] | ≤ 10
CCc1c(CCN2CC(C(=O)O)C2)cccc1-c1cnc(-c2ccc(OC(C)C)c(Cl)c2)nc1 [Example 28, N-{2-[3-(2-{3-chloro-4-[(1-methylethyl)oxy]phenyl}-5-pyrimidinyl)-2-ethylphenyl]ethyl}-3-azetidinecarboxylic acid] | ≤ 2

The next lines start with the values.

EC50 [µM] | Compound
≤ 10 | CCc1c(CCN2CCC[C@H](C(=O)O)C2)cccc1-c1cnc(-c2ccc(CC(C)C)c(C#N)c2)nc1 [Example 39, (3S)-1-[2-(3-{2-[3-cyano-4-(2-methylpropyl)phenyl]-5-pyrimidinyl}-2-ethylphenyl)ethyl]-3-piperidinecarboxylic acid]
≤ 10 | CCc1c(CCN2CCC(C(=O)O)C2)cccc1-c1cnc(-c2ccc(CC(C)C)c(C#N)c2)nc1 (stereo not shown) [Example 37, 1-[2-(3-{2-[3-cyano-4-(2-methylpropyl)phenyl]-5-pyrimidinyl}-2-ethylphenyl)ethyl]-3-pyrrolidinecarboxylic acid]
≤ 10 | CCc1c(CCN2CCCC(C(=O)O)C2)cccc1-c1cnc(-c2ccc(OC(C)C)c(Cl)c2)nc1 (stereo not shown) [Example 31, 1-{2-[3-(2-{3-chloro-4-[(1-methylethyl)oxy]phenyl}-5-pyrimidinyl)-2-ethylphenyl]ethyl}-3-piperidinecarboxylic acid]
≤ 10 | CCc1c(CCN2CC(C(=O)O)C2)cccc1-c1cnc(-c2ccc(CC(C)C)c(C#N)c2)nc1 [Example 36, 1-[2-(3-{2-{3-cyano-4-(2-methylpropyl)phenyl}-5-pyrimidinyl}-2-ethylphenyl)ethyl]-3-azetidinecarboxylic acid]
≤ 10 | CCc1c(CCN2CCCC(C(=O)O)C2)cccc1-c1cnc(-c2ccc(CC(C)C)c(C#N)c2)nc1 (stereo not shown) [Example 38, 1-[2-(3-{2-[3-cyano-4-(2-methylpropyl)phenyl]-5-pyrimidinyl}-2-ethylphenyl)ethyl]-3-piperidinecarboxylic acid]
≤ 10 | CCc1c(CCN2CCC[C@H](C(=O)O)C2)cccc1-c1cnc(-c2ccc(OC(C)C)c(Cl)c2)nc1 [Example 32, (3S)-1-{2-[3-(2-{3-chloro-4-[(1-methylethyl)oxy]phenyl}-5-pyrimidinyl)-2-ethylphenyl]ethyl}-3-piperidinecarboxylic acid]
≤ 2 | CCc1c(CCN2CCC(C(=O)O)CC2)cccc1-c1cnc(-c2ccc(CC(C)C)c(C#N)c2)nc1 [Example 40, 1-[2-(3-{2-[3-cyano-4-(2-methylpropyl)phenyl]-5-pyrimidinyl}-2-ethylphenyl)ethyl]-4-piperidinecarboxylic acid]
≤ 10 | CCc1c(CCN(C)CC(=O)O)cccc1-c1cnc(-c2ccc(CC(C)C)c(C#N)c2)nc1 [Example 34, N-[2-(3-{2-[3-cyano-4-(2-methylpropyl)phenyl]-5-pyrimidinyl}-2-ethylphenyl)ethyl]-N-methylglycine trifluoroacetate]
≤ 10 | CCc1c(CCN(C)CCC(=O)O)cccc1-c1cnc(-c2ccc(CC(C)C)c(C#N)c2)nc1 [Example 35, N-[2-(3-{2-[3-cyano-4-(2-methylpropyl)phenyl]-5-pyrimidinyl}-2-ethylphenyl)ethyl]-N-methyl-b-alanine]
≤ 2 | CCc1c(CCN2CCC(C(=O)O)CC2)cccc1-c1cnc(-c2ccc(OC(C)C)c(Cl)c2)nc1 [Example 33, 1-{2-[3-(2-{3-chloro-4-[(1-methylethyl)oxy]phenyl}-5-pyrimidinyl)-2-ethylphenyl]ethyl}-4-piperidinecarboxylic acid]

Tested on: animal models of immune disorders
Test: not given
Conditions: cited from earlier work

Compound | disease modulating activity
CCCCCCCCc1ccc(CCC(N)(CO)CO)cc1 [FTY720] | disease modulating activity

Tested on: not given
Test: not given
Conditions: clinical studies, first 24 hours of treatment; cited from earlier work

Compound | bradycardia
CCCCCCCCc1ccc(CCC(N)(CO)CO)cc1 [FTY720] | results in bradycardia
